The term IC50 denotes the point on the concentration scale where inhibition reaches its midpoint.

Structures are written as SMILES. “Also recorded” adds a separate entry of the source. Like-named read-outs stand apart in the source and are kept apart here.

The values below come from publication PMC10702053, “Design, synthesis, and characterization of novel system xC^− transport inhibitors: inhibition of microglial glutamate release and neurotoxicity” (Journal of Neuroinflammation, 2023).

For series [1], the target named is T1, SxC^− transporter (system xC^− cystine-glutamate antiporter) (Rattus norvegicus, UniProt A0A8I6AB70).
T1 construct: endogenous in cells
In words: Microglial glutamate release assay (LPS-activated primary microglia). The series is classed as cell-based. The method, then: Primary cultures of rat microglia were established as described previously. Microglia were seeded at 375,000/cm^2 in 96-well plates with minimal essential medium with Earle’s salts (MEM) containing 10% fetal bovine serum (FBS). After an overnight plating, the cultures were washed twice with serum-free MEM, and then a third volume was applied containing test substances at the indicated concentrations; MEM contains 100 μM (Cys)2. Immediately thereafter, lipopolysaccharide (LPS) was added to some wells at 100 ng/ml. This concentration was selected for this particular lot of LPS as the concentration producing a slightly submaximal response (i.e., 2–5% below the maximum). After 18 h, 50 μl of medium was transferred from each well to a black, opaque-bottomed 96-well plate and combined with 50 μl of assay reagent from a Amplex® Red Glutamic Acid Assay kit (ThermoFisher). A standard curve was generated with a range of concentrations of L-glutamate (monosodium salt). The assay reagent contained 0.25 U/ml horseradish peroxidase, 0.08 U/ml L-glutamate oxidase, 0.5 U/ml L-glutamate/pyruvate transaminase, and 200 μM L-alanine. After 30 min, fluorescence was measured in a Molecular Devices SpectraMax 3 with excitation at 550 nm and emission at 590 nm; values were interpolated into the standard curve. The microglial medium was also assayed for nitric oxide using Griess reagent to confirm that none of the experimental compounds was a general inhibitor of microglial activation. We also considered whether any compound was toxic to microglia. The microglia remaining in the 96-well plates were combined with 3-(4,5-dimethylthiazol-2-yl)-2,5-diphenyl-2H-tetrazolium bromide (MTT) at a final concentration of 125 μg/ml (in MEM/FBS) and incubated for 30 min at 37 °C and 5.5% CO2. After removal of the medium, 100 μl of dimethyl sulfoxide (DMSO) was added to dissolve the formazan crystals, and absorbance at 540 nm was measured in the SpectraMax 3; the mean background obtained in wells containing DMSO alone was subtracted from each experimental value.
Data were analyzed in GraphPad Prism 9.5.1. Nonlinear regression was performed on the glutamate release assay data to derive IC50 values and the graphed plot lines. ANOVA indicated post hoc tests were applied to dosimetric data; P < 0.05 was considered significant.
Fig. 2 Microglial Glu release assay. Rat primary microglia were activated with 100 ng/ml LPS alone or immediately following application of the indicated concentrations of test substances. After 18 h in the presence of LPS, an aliquot of medium was assayed for Glu via a […]. A First generation of compounds was created by simply varying the position of a methyl group around an aromatic ring, comparing activity to 3,5-DBT. B Additional modifications were evaluated, including several that simply extend the size of the structure hypothesized to fit into the hydrophobic pocket of the SxC^− transporter. Values are represented relative to the Glu detected in cultures treated with LPS alone; each data point represents a mean of 4 cultures. Nonlinear regression was performed to provide the plot lines

Series [2] is described as follows: Solubility in aqueous media (observation). The class given is physicochemical.
Series [3] can be described thus: Light sensitivity (observation). The series is classed as physicochemical.
A further series relates to primary cortical neurons. Briefly: Neurotoxicity assay: microglia transwell / cortical neuron coculture, MTT. The class given is cell-based, rat. As to conditions: microglia treated with compound + LPS 100 ng/ml, 1 h, then 18 h with cortical neurons. The procedure: Primary cultures of rat cortical neurons were established as described previously; incorporation of both a serum-free medium and an intermittent treatment with cytosine arabinoside results in cultures that are among the purest neuronal primary cultures available. The cultures were seeded in 24-well plates, and 8 days later primary microglia were plated in transwell inserts (12-mm diameter) at 375,000/cm^2, washed to serum-free MEM, and treated with test substances followed immediately by LPS (100 ng/ml). After 1 h, the inserts were placed into the wells of the neuronal cultures. After an additional 18 h, the inserts were removed, and neuronal survival was evaluated by MTT assay as described above. Values are represented relative to the MTT signal produced in cultures exposed to untreated microglia.
Fig. 6 35DPTA7 and 35DPTSA12 reduced the neurotoxicity of activated microglia. Primary microglia were plated on permeable membranes in basket-type cell-culture inserts. Some cultures were treated with the indicated concentrations of 35DBTA7 or 35DBTSA12, followed immediately by application of LPS (100 ng/ml); some cultures were untreated and some received LPS alone. After 1 h, the inserts were placed into wells containing primary cortical neurons. After an additional 18 h, neuronal survival was determined by MTT assay. […]

In series [4] the target is T1, SxC^− transporter (system xC^− cystine-glutamate antiporter). Briefly: Cystine uptake assay (selenocystine) in LPS-activated primary microglia. The class given is cell-based. As to conditions: LPS 100 ng/ml 15 h, selenocystine uptake 30 min, 0.03-300 μM. The method, then:
Cystine uptake was measured essentially as per Shimomura et al. using the Cystine Uptake Assay Kit (DOJINDO). Primary microglia were seeded as per glutamate release assays, and some cultures were treated the following day with 100 ng/ml LPS. After 15 h, the cultures were washed twice with Hank’s balanced salt solution (HBSS) and then incubated 5 min at 37 °C in HBSS containing fresh LPS and test substances at the indicated concentrations. The cultures were then exposed to HBSS containing selenocystine (DOJINDO) for 30 min at 37 °C, after which they were washed three times with ice-cold phosphate-buffered saline and then fixed in 50 μl methanol. A detection buffer comprising fluorescein O,O’-diacrylate and reducing agent (DOJINDO) was then added, and the plate was sealed and incubated for 30 min at 37 °C. Reaction product was then assayed in the Molecular Devices SpectraMax 3 with excitation at 490 nm and emission at 535 nm. Blanks consisted of wells containing only cells that had been washed, fixed with methanol, and incubated with the detection buffer, and the values from these wells were subtracted from the experimental values.
Fig. 5 35DPTA7 and 35DPTSA12 inhibit cystine uptake in microglia. Rat primary microglia were activated with 100 ng/ml LPS alone for 15 h, then the indicated concentrations of test substances were applied during application of selenocystine. […]

[5] abbreviates: rat primary microglia, LPS 100 ng/ml, 18 h.
Setting [6] is: rat primary microglia, LPS 100 ng/ml, 18 h, nonlinear regression in GraphPad Prism, read-out: IC50 ± SEM, inhibition of microglial Glu release.

T1 sequence (A0A8I6AB70 1-502): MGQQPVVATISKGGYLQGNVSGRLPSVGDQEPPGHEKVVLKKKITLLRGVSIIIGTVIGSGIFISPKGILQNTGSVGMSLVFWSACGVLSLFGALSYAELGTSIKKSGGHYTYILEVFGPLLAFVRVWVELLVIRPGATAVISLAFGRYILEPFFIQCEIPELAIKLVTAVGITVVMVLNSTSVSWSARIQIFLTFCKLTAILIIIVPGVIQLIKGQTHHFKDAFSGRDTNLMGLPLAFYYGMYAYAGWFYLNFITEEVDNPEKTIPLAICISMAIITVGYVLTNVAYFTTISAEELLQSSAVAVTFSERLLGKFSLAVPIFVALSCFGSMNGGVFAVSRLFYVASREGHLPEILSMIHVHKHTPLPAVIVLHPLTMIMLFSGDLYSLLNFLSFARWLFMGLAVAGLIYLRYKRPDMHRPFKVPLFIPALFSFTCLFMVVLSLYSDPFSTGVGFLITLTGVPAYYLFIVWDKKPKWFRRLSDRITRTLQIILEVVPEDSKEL
T1 sequence (Q794F9 whole entry partner): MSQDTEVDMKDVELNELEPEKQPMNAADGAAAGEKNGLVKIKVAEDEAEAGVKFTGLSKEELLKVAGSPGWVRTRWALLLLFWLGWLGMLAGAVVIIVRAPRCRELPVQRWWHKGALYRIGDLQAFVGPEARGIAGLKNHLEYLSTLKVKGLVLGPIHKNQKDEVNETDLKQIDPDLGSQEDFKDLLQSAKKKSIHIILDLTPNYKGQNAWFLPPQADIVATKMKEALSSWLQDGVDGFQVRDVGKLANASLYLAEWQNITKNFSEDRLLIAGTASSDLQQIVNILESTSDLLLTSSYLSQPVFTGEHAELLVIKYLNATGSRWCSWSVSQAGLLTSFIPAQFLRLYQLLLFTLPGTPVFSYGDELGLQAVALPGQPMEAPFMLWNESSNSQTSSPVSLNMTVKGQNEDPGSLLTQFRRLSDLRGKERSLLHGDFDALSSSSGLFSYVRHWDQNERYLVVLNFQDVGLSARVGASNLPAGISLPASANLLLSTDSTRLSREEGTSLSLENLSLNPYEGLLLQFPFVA

With `N[C@@H](Cc1nc(I)[nH]c1I)C(=O)O` [2,5-DIH, 2,5-diiodohistidine], the “Inhibition of SxC^− / microglial Glu release (in words)” value in series [1] (setting [5]) is “completely inactive”.

In series [1], `N[C@@H](Cc1cc(Br)c(O)c(Br)c1)C(=O)O` [3,5-DBT, 3,5-dibromotyrosine] displayed an IC50 of 3.49 ± 0.779 µM. For the same molecule, the “Inhibition of SxC^− / microglial Glu release (in words)” value in series [1] (setting [5]) is reported as “potent inhibition”. Moreover, the “Solubility in water / aqueous solutions (in words)” value in series [2] is “high solubility in water as a salt”.

As to `N[C@@H](Cc1cc(I)c(O)c(I)c1)C(=O)O` [3,5-DIT], the IC50 in series [1] (setting [6]) is 0.665 ± 0.127 µM. In addition, the Light sensitivity entry in series [3] is “exceedingly light sensitive”.

In the case of `Cc1ccccc1C(=O)N[C@@H](Cc1cc(Br)c(O)c(Br)c1)C(=O)O` [35DBTA1], in series [1] (setting [6]), the half-maximal inhibitory concentration (IC50) was found to be 1.03 ± 0.44 µM.

As to `Cc1cccc(C(=O)N[C@@H](Cc2cc(Br)c(O)c(Br)c2)C(=O)O)c1` [35DBTA2], the IC50 in series [1] (setting [6]) is 5.79 ± 3.96 µM.

Take `Cc1ccc(C(=O)N[C@@H](Cc2cc(Br)c(O)c(Br)c2)C(=O)O)cc1` [35DBTA3]: in series [1] (setting [5]), the “Inhibition of SxC^− / microglial Glu release (in words)” value is listed as “greatest potency”. Further, the IC50 in series [1] (setting [6]) was 0.159 ± 0.0244 µM.

As to `CCC(=O)N[C@@H](Cc1cc(Br)c(O)c(Br)c1)C(=O)O` [35DBTA5], the IC50 in series [1] (setting [6]) was determined as 25.5 ± 4.59 µM.

In the case of `O=C(O)[C@H](Cc1cc(Br)c(O)c(Br)c1)NC(=O)C(F)(F)F` [35DBTA6], the “Inhibition of SxC^− / microglial Glu release (in words)” value in series [1] (setting [5]) is on record as “trend toward inhibitory properties at low concentrations but produced a reversal of that trend above 3 μM”.

As to `O=C(N[C@@H](Cc1cc(Br)c(O)c(Br)c1)C(=O)O)c1ccc(-c2ccccc2)cc1` [35DBTA7], the “Inhibition of SxC^− / microglial Glu release (in words)” value in series [1] (setting [5]) was “quite effective”. Moreover, the IC50 in series [1] (setting [6]) came to 1.61 ± 0.377 µM. Moreover, the “Neuronal survival (MTT) in presence of LPS-activated microglia (in words)” value in the series on primary cortical neurons was “elevated the survival signal; also recorded: quite effective”. The “Inhibition of cystine uptake into microglia (in words)” value in series [4] is recorded as “dose-dependent inhibition”.

In the case of `O=C(N[C@@H](Cc1cc(Br)c(O)c(Br)c1)C(=O)O)c1ccc(-c2ccc(-c3ccccc3)cc2)cc1` [35DBTA8], the “Inhibition of SxC^− / microglial Glu release (in words)” value in series [1] (setting [5]) is given as “quite effective”. In addition, the IC50 in series [1] (setting [6]) turned out to be 0.172 ± 0.0056 µM. Moreover, the “Solubility in water / aqueous solutions (in words)” value in series [2] is recorded as “poorly soluble”. Also, the “Solubility of the disodium salt (carboxylate and phenoxide) in aqueous media” value in series [2] (disodium salt) is listed as “poorly soluble”.

`N[C@@H](Cc1ccc(O)cc1)C(=O)O` [Tyr, L-tyrosine, reference compound]: the “Inhibition of SxC^− / microglial Glu release (in words)” value in series [1] (setting [5]) is reported as “does not possess any inhibitory properties”.
